Calls of active or inactive are those of the source.
Legend:
[1] = system: Streptococcus; test: Group A Streptococcus viability loss, dose response, counter-screen for streptokinase expression inhibitor project, luminescence, BacTiterGlo (AID 1915); format: functional, organism-based;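 note: potency for reduction of bacterial viability or growth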
[2] = C. albicans growth with fluconazole, confirmation, fluorescence, retest (AID 2467); format: functional, cell-based
[3] = Vero E6 cell cytotoxicity, dose response, cytotoxicity control for non-replicating M. tuberculosis project, secondary assay (AID 492998); format: functional, VeroE6; conditions: Vero C1008
[4] = system: Streptococcus sp. 'group A'; test: growth inhibition of control SK(-) GAS strain, dose response, counter-screen for streptokinase expression inhibitor project, luminescence, kanamycin, BacTiterGlo, confirmation (AID 1900); format: functional, organism-based
[5] = cells; format: functional
[6] = NIH-3T3 fibroblast cytotoxicity, dose response, cytotoxicity control, cell-based, fluorescence, Alamar Blue, secondary assay (AID 2327); format: functional;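 note: NIH-3T3 mouse fibroblasts cultured with fluconazole at 8 µg/mL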
[7] = THP-1 cell cytotoxicity, dose response, cytotoxicity control for non-replicating M. tuberculosis project (AID 489025); format: functional
[8] = target: Peroxisome proliferator-activated receptor gamma/Nuclear receptor coactivator 3 (Homo sapiens, UniProt P37231); test: TR-FRET dose response biochemical High Throughput Screening assay for agonists of the steroid receptor coactivator 3 (SRC-3) recruitment by the peroxisome proliferator-activated receptor gamma (PPAR gamma): non-selective agonists. [Related pubchem assays: 1301 (Confirmation screen.), 1048 (Primary screen.)]; format: functional
[9] = target: T1, Beta-galactosidase (Escherichia coli, UniProt Q8VNN2); test: Dose response counterscreen for EBI2 assay utilizing the enzyme, b-galactosidase.; format: functional
[10] = target: Peroxisome proliferator-activated receptor gamma/Nuclear receptor coactivator 1 (Homo sapiens, UniProt P37231); test: TR-FRET dose response biochemical High Throughput Screening assay for agonists of the steroid receptor coactivator 1 (SRC-1) recruitment by the peroxisome proliferator-activated receptor gamma (PPAR gamma): non-selective agonists. [Related pubchem assays (depositor defined):AID1300, AID1808, AID504735, AID631]; format: protein assay
[11] = target: Peroxisome proliferator-activated receptor gamma/Nuclear receptor coactivator 2 (Homo sapiens, UniProt P37231); test: TR-FRET dose response biochemical High Throughput Screening assay for agonists of the steroid receptor coactivator 2 (SRC-2) recruitment by the peroxisome proliferator-activated receptor gamma (PPAR gamma): non-selective agonists. [Related pubchem assays: 1297, 1032 ]; format: functional
[12] = inhibitors of intracellular T. cruzi replication, confirmation, NIH3T3 host cells, beta-gal luminescence (AID 2044); format: functional, cell-based;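 note: intracellular parasites grown in NIH/3T3 mouse fibroblasts as host cells; luminescent beta-galactosidase reporter signal from transgenic T. cruzi replicating inside host cells; inhibitors lower the luminescence signal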
[13] = cytotoxicity toward NIH3T3 fibroblasts, dose response, counter-screen, cell-based, ATP luminescence, mouse fibroblasts (AID 2010); format: functional;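 note: cells exposed to compound for about 90 hours before reading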
[14] = target: ATP-dependent molecular chaperone HSP82 (Candida albicans (strain WO-1) (Yeast), UniProt C4YTQ8); test: loss of DOC-induced GRE-beta-galactosidase reporter signal, dose response, Hsp90 inhibitor project, S. cerevisiae, luminescence (AID 2400); format: functional, cell-based;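 note: beta-galactosidase luminescence from glucocorticoid response element reporter as proxy for Hsp90 function; inhibitor potency where signal loss means Hsp90 inhibition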
[15] = target: T2, Serine/threonine-protein phosphatase (Candida dubliniensis (strain CD36 / CBS 7987 / NCPF 3949 / NRRLY-17841) (Yeast), UniProt B9W6M3); test: calcineurin pathway inhibitors in yeast reporter, dose response, S. cerevisiae, CDRE-lacZ, luminescence, secondary (AID 2388); format: functional, cell-based;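 note: yeast reporter cells carrying a calcineurin-responsive lacZ construct stimulated with calcium chloride; luminescent beta-galactosidase reporter signal in whole cells rather than isolated phosphatase activity; potency for inhibition where a drop in reporter signal means calcineurin blockade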
T2 sequence (B9W6M3 whole entry): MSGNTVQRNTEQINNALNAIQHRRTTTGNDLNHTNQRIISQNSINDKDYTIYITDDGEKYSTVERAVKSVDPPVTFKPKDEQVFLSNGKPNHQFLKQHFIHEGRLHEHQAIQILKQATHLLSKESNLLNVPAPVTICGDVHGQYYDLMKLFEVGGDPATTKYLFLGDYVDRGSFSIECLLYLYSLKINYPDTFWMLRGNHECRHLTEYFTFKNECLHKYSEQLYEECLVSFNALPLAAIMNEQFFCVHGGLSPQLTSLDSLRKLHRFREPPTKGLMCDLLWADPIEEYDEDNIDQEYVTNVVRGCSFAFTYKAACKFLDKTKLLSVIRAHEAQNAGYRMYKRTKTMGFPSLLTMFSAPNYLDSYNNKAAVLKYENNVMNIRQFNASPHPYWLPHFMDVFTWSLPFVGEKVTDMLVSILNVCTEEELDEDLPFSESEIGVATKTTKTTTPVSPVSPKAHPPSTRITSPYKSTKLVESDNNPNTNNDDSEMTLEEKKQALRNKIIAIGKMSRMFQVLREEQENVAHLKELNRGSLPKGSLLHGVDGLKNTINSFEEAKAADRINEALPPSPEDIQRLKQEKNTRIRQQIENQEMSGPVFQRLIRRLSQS

[16] = system: HEK293; test: inhibitors of LMP1-driven NF-kB reporter, dose response, cell-based, HEK293, luciferase, cherry-pick (AID 588343); format: functional; conditions: Homo sapiens
[17] = target: T3, Coagulation factor XII (Homo sapiens, UniProt P00748); format: functional;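 note: activated factor XIIa alpha cleaving a fluorogenic AMC peptide substrate; inhibitor potency from loss of enzyme activity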
T3 sequence (P00748 whole entry): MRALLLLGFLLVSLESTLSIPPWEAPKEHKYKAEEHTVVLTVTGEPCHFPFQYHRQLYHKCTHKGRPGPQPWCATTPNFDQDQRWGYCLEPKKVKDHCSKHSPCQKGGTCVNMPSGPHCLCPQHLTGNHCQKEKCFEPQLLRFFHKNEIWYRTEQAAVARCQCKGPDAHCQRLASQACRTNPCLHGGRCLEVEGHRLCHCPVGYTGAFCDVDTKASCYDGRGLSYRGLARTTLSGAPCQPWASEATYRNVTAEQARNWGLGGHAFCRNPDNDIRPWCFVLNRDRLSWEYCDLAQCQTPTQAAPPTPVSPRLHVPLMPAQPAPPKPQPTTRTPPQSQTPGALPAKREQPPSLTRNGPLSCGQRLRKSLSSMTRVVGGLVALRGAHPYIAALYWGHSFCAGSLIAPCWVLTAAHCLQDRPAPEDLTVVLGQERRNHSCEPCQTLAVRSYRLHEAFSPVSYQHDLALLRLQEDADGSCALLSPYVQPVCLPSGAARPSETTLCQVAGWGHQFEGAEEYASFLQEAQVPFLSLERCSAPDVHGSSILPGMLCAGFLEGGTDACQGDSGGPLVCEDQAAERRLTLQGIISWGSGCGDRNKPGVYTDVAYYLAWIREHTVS

[18] = system: BJ; test: cytotoxicity toward BJ-TERT-LT-ST fibroblasts, dose response, cell-based, RAS-independent, luminescence (AID 1935); format: functional; conditions: Homo sapiens;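 note: BJ fibroblasts immortalized with TERT plus LT and ST oncogenes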
[19] = system: BJ; test: cytotoxicity toward Ras-transformed BJeLR fibroblasts, dose response, cell-based, alamar blue fluorescence, cherrypicked samples (AID 2631); format: functional; conditions: Homo sapiens;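 note: confirmatory dose-response assay in RAS-dependent BJ fibroblasts engineered with TERT, LT and ST, with cytotoxicity read by fluorescence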
[20] = Luminescence Cell-Based Dose Retest to Confirm Inhibitors of Cancer Stem Cells. [Related pubchem assays (depositor defined):AID2717, AID2721]; format: functional; conditions: Homo sapiens
[21] = system: BJ; test: cytotoxicity toward BJ-TERT fibroblasts, dose response, cell-based, RAS-independent, luminescence (AID 1933); format: functional; conditions: Homo sapiens
[22] = system: BJ; test: cells; format: functional, cell-based; conditions: Homo sapiens
[23] = cytotoxicity toward DRD oncogenic fibroblasts, dose response, cell-based, non-viral oncogenic, luminescence (AID 1934); format: functional; conditions: Homo sapiens
[24] = target: Luciferin 4-monooxygenase (Photinus pyralis, UniProt P08659); test: firefly luciferase enzyme inhibitors, dose response, biochemical, luminescence (AID 1891)
[25] = Luminescence Cell-Based Dose Confirmation HTS to Identify Inhibitors of Platelet Dense Granule Release. [Related pubchem assays: 1663 (Primary HTS), 1678 (Summary of Project)]; format: functional
[26] = cytotoxicity in HEK-293T cells, dose response, cytotoxicity control for BCR NF-kB inhibitor project, luminescence, B-cell screen hits (AID 489021); format: functional, cell-based;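 note: HEK-293T cells carrying an NF-kB luciferase reporter; cells exposed to compound for about 14 hours before viability readout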
[27] = system: CHO; test: cytotoxicity in TLR9-MyD88 CHO cells, dose response, cytotoxicity control for TLR9-MyD88 binding inhibitor project, cell-based, luminescence (AID 588339); format: functional, hamster; conditions: Cricetulus griseus;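 note: CHO cells stably coexpressing TLR9 and MyD88 fusions from primary screen; compound exposure lasted 48 hours before viability readout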
[28] = target: T1, Beta-galactosidase; test: PubChem AID 485352; format: functional
[29] = target: T4, Type-1 angiotensin II receptor (Homo sapiens, UniProt P30556); test: AT1 receptor antagonists, dose response, selectivity assay for APJ receptor antagonist project, cell-based, uHTS hits (AID 463214); format: functional;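 note: antagonist potency against angiotensin II stimulated AT1 response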
T4 sequence (P30556 whole entry): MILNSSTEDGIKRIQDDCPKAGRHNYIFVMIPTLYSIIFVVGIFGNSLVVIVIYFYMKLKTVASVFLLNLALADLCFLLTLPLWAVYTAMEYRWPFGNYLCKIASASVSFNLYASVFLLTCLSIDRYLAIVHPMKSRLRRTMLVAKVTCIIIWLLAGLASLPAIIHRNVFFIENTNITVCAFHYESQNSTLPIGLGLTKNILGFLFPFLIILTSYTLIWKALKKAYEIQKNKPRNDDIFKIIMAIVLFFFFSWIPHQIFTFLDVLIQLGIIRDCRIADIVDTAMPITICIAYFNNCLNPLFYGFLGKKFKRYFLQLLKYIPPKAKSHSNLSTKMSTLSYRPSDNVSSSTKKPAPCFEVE

[30] = target: Prothrombin (Homo sapiens, UniProt P00734); test: Thrombin 1536 HTS Dose Response Confirmation. [Related pubchem assays: 1046 (Thrombin 1536 HTS; hits were confirmed in this assay)]; format: functional
[31] = HEK293 cell cytotoxicity, dose response, cytotoxicity control, plate reader, cherry-picked samples (AID 743446); format: functional, cell-based
[32] = A549 cell cytotoxicity, dose response, cytotoxicity control, plate reader, cherry-pick, antagonist series (AID 743412); format: functional, cell-based
[33] = LGR2 antagonists, dose response, cell-based, HEK293, CRE-luciferase reporter, cherry pick, set 2 (AID 743343); format: functional;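 note: transfected cells were stimulated with diluted bursicon conditioned medium after compound addition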
[34] = HepG2 cell cytotoxicity, dose response, cytotoxicity control, plate reader, cherry-pick, antagonist series (AID 743416); format: functional, cell-based
[35] = MC4R antagonists, dose response, counter-screen for LGR2 antagonist project, cell-based, plate reader, cherry pick (AID 743444); format: functional;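 note: transfected HEK 293 cells stimulated with alpha-MSH peptide; potency of inhibitors of the alpha-MSH evoked signal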

T1 sequence (Q8VNN2 whole entry): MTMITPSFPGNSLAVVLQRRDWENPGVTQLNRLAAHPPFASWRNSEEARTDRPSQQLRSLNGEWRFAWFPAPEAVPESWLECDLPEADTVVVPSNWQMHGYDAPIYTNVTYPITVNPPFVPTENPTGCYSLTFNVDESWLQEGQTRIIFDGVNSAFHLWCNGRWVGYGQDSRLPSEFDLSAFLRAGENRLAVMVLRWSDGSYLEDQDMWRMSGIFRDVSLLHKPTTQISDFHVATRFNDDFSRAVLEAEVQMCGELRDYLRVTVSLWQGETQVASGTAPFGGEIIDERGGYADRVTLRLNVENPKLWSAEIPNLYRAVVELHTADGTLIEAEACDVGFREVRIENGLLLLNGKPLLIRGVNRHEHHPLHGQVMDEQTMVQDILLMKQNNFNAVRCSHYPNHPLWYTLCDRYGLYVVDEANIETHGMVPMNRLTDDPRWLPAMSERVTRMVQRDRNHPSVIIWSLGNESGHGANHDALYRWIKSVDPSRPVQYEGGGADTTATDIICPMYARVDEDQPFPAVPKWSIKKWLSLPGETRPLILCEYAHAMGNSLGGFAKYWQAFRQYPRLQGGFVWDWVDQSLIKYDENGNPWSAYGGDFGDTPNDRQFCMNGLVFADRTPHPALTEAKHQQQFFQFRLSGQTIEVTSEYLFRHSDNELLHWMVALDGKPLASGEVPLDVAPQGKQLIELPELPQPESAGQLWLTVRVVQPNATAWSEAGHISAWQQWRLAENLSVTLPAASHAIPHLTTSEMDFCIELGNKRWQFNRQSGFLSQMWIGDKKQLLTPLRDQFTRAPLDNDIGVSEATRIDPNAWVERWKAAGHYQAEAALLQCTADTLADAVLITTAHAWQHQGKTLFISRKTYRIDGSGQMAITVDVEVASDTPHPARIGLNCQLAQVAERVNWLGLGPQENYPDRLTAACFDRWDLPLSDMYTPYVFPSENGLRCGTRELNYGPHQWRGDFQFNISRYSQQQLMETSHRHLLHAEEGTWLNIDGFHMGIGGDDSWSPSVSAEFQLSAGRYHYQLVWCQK
Peroxisome proliferator-activated receptor gamma/Nuclear receptor coactivator 3, sequence (P37231 whole entry): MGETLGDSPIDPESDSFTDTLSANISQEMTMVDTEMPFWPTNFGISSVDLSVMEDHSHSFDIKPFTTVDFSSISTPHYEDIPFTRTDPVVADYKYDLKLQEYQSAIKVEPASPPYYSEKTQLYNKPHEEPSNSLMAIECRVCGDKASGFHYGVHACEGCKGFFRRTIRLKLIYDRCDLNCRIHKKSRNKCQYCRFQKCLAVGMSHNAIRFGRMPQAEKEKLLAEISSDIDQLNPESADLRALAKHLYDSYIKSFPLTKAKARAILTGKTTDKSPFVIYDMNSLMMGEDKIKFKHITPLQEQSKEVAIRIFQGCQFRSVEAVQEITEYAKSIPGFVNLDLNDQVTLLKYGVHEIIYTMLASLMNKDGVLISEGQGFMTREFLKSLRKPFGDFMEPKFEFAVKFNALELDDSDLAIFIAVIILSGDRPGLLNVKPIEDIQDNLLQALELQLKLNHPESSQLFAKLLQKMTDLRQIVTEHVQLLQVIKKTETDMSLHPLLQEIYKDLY
Peroxisome proliferator-activated receptor gamma/Nuclear receptor coactivator 3, sequence (Q9Y6Q9 whole entry, further chain): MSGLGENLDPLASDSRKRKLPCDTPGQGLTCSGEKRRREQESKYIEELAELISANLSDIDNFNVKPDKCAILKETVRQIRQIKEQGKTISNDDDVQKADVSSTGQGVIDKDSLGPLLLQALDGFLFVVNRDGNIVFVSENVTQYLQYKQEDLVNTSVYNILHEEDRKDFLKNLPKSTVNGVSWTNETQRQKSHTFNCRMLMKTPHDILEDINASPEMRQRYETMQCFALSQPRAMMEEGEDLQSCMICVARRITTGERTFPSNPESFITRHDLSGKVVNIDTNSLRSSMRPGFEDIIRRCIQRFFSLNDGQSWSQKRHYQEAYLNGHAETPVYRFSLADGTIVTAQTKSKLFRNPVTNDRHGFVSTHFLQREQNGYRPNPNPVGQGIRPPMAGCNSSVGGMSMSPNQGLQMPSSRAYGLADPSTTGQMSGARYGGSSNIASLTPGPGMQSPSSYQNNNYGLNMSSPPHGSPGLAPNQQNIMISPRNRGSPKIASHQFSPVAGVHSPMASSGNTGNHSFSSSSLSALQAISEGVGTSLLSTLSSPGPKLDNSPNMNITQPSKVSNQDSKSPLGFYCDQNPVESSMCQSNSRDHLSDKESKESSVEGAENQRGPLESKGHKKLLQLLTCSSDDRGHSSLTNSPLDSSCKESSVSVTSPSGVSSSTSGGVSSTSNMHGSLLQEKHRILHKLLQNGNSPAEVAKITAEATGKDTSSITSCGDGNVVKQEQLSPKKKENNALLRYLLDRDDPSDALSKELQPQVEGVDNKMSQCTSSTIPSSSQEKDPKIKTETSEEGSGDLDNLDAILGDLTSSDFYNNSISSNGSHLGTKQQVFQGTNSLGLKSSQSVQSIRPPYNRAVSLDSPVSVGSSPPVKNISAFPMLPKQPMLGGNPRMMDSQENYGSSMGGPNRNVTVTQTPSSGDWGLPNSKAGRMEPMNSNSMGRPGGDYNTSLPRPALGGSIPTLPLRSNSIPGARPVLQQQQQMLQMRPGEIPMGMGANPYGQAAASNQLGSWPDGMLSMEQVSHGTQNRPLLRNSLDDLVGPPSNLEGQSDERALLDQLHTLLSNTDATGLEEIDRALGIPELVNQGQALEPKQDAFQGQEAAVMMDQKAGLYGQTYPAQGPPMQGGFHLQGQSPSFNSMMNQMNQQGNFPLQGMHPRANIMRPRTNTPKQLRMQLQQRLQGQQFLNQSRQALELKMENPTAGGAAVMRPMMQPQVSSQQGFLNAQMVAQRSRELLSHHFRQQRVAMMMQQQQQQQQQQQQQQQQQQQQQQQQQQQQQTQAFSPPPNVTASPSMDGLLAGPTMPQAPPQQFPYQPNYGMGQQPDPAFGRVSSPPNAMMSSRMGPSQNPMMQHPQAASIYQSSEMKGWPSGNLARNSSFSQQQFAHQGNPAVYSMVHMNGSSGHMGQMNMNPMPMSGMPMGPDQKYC
Peroxisome proliferator-activated receptor gamma/Nuclear receptor coactivator 2, sequence (P37231 whole entry): as the sequence (P37231 whole entry) above
Peroxisome proliferator-activated receptor gamma/Nuclear receptor coactivator 2, sequence (Q15596 whole entry, further chain): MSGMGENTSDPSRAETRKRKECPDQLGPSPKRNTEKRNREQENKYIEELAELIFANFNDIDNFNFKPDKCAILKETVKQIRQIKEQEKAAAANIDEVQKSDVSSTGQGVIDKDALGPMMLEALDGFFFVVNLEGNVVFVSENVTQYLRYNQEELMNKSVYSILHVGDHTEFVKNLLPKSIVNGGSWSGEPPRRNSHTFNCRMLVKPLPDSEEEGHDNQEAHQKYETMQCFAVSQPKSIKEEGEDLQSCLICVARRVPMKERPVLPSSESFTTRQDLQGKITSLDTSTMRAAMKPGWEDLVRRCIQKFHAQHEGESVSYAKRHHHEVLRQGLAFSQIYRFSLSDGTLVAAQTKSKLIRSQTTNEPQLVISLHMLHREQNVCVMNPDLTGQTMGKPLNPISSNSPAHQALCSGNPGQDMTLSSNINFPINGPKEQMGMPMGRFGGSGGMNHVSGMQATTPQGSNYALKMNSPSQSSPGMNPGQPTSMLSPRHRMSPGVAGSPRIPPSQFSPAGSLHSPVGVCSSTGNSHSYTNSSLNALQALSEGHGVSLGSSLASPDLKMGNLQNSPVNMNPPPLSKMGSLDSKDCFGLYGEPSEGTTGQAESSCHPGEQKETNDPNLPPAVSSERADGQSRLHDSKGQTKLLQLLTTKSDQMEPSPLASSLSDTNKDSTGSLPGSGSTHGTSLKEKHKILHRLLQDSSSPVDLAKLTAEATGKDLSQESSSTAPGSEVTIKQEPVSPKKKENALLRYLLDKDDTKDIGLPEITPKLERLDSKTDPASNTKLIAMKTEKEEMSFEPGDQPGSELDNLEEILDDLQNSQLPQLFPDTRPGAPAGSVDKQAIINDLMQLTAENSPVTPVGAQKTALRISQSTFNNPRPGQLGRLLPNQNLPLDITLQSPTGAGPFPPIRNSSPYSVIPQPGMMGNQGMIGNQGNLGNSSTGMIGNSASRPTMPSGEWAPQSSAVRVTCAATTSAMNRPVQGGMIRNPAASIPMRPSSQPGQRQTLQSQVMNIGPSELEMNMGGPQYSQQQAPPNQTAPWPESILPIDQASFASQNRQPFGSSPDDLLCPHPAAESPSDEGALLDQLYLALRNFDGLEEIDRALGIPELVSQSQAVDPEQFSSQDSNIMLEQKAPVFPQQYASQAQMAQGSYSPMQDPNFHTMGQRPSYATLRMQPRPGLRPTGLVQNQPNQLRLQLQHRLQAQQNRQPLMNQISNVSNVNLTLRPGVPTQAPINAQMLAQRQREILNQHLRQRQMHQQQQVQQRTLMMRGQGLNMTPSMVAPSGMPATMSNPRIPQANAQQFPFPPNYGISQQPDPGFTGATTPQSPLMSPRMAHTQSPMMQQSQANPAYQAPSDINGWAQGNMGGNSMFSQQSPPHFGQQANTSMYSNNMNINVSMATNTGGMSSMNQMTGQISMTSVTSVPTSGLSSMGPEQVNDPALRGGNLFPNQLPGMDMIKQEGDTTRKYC

## COc1cccc(C(=O)Nc2nnc(-c3ccc(F)cc3)o2)c1
[1]
  EC50: 5.74 µM (active)
[2]
  EC50: 1.96 µM (active)
[3]
  CC50: 15.8 µM (active)
[4]
  EC50: 2.33 µM (active)
[5]
  IC50: 1.03 µM (active)
[6]
  EC50: > 150 µM (inactive)
[7]
  CC50: 31.9 µM (active)

## CN=C(S)N1N=C(c2ccc(Br)cc2)CC1c1ccc(Br)cc1 (stereo unspecified)
[8]
  EC50: > 26.5 µM (not active)
[9]
  IC50: > 80 µM (inactive)
[10]
  EC50: > 2.94 µM (active)
[11]
  EC50: > 8.82 µM (not active)
[12]
  EC50: 1.64 µM (active)
[13]
  EC50: > 60 µM (not active)

## C=CCOC(=O)c1sc(NC(=O)c2ccco2)nc1C
[2]
  EC50: 0.544 µM (active)
[14]
  EC50: 29.7 µM (active)
[15]
  EC50: > 180 µM (inactive)
[6]
  EC50: > 150 µM (inactive)

## Cn1cccc1/C=C1\CC(C(C)(C)C)C/C(=C\c2cccn2C)C1=O (stereo unspecified)
[16]
  AC50: 160 µM (active)

## Cc1cc(C)n2nc(SCC(=O)Nc3ccc(F)cc3)nc2n1
[17]
  IC50: > 50 µM (inactive)

## O=C(NCc1cccnc1)c1ccc(NC(=O)c2ccc(Br)cc2)cc1
[18]
  EC50: 14 µM (active)
[19]
  EC50: 0.169 µM (active)
[20]
  AC50: 1.36 µM (active)
[21]
  EC50: > 150 µM (not active)
[22]
  EC50: 1.3 µM (inconclusive)
[23]
  EC50: > 150 µM (not active)

## CCOc1ccc(N/C=C/C(=O)c2ccccc2)cc1
[24]
  EC50: 0.453 µM (active)
[25]
  EC50: 2 µM (active)
[16]
  AC50: 3.62 µM (active)

## COC(=O)c1c(-c2ccc(N(C)C)cc2)sc2ccc(OC)cc12
[26]
  IC50: > 80 µM (inactive)
[20]
  AC50: 3.3 µM (active)
[27]
  IC50: > 49.7 µM (inactive)

## Cc1ccc(C(=O)COC(=O)CN2C(=O)C3CC=CCC3C2=O)cc1[N+](=O)[O-] (stereo unspecified)
[28]
  EC50: > 40 µM (inactive)
[29]
  IC50: 33.6 µM (not active)

## CC(=O)NNC(=S)NC(=O)c1ccccc1
[30]
  IC50: > 50 µM (inconclusive)
[17]
  IC50: > 50 µM (inactive)

## Cc1ccc(S(=O)(=O)c2nc(-c3cccs3)oc2SCC(N)=O)cc1
[8]
  EC50: > 79.4 µM (not active)
[10]
  EC50: 7.72 µM (active)
[11]
  EC50: 8.44 µM (active)

## COC(=O)c1nnc(NC(C)=O)[nH]1
[17]
  IC50: 12.2 µM (active)

## Cc1ccc(-c2cc3c(nn2)-c2ccccc2C3=O)cc1
[31]
  AC50: 18.3 µM (active)
[28]
  EC50: > 40 µM (inactive)
[32]
  AC50: 25.5 µM (active)
[33]
  AC50: 1.11 µM (active)
[34]
  AC50: 35.8 µM (active)
[29]
  IC50: 2.89 µM (active)
[35]
  AC50: 1.65 µM (active)
